Experiments:
D816V KIT = D816V KIT (Homo sapiens (Human), UniProt P10721, D816V); assay: KIT D816V assay at Km (Caliper electrophoretic mobility shift); settings: biochemical, 15 uM ATP (Km), 90 minutes at 25 C; read-out: INH KIT D816V
PDGFRA D842V = PDGFRA D842V (Homo sapiens (Human), UniProt P16234, D842V); assay: PDGFRA D842V assay at Km (Caliper electrophoretic mobility shift); settings: biochemical, 15 uM ATP (Km), 90 minutes at 25 C; read-out: INH PDFGRA D842V
[1] = biological target: KIT D816V kinase activity (KIT autophosphorylation at tyrosine 719) in HMC1.2 cells (Homo sapiens (Human), UniProt P10721, D816V/V560G); assay: HMC1.2 autophosphorylation assay (phospho-Y719 c-KIT AlphaLISA); type: cell-based; settings: HMC1.2 mast cell leukemia cell line (KIT V560G, D816V), 90 minutes compound; read-out: INH-KIT-PHOS-HMC1.2
Chain of KIT D816V kinase activity (KIT autophosphorylation at tyrosine 719) in HMC1.2 cells (P10721 26-976 V560G/D816V): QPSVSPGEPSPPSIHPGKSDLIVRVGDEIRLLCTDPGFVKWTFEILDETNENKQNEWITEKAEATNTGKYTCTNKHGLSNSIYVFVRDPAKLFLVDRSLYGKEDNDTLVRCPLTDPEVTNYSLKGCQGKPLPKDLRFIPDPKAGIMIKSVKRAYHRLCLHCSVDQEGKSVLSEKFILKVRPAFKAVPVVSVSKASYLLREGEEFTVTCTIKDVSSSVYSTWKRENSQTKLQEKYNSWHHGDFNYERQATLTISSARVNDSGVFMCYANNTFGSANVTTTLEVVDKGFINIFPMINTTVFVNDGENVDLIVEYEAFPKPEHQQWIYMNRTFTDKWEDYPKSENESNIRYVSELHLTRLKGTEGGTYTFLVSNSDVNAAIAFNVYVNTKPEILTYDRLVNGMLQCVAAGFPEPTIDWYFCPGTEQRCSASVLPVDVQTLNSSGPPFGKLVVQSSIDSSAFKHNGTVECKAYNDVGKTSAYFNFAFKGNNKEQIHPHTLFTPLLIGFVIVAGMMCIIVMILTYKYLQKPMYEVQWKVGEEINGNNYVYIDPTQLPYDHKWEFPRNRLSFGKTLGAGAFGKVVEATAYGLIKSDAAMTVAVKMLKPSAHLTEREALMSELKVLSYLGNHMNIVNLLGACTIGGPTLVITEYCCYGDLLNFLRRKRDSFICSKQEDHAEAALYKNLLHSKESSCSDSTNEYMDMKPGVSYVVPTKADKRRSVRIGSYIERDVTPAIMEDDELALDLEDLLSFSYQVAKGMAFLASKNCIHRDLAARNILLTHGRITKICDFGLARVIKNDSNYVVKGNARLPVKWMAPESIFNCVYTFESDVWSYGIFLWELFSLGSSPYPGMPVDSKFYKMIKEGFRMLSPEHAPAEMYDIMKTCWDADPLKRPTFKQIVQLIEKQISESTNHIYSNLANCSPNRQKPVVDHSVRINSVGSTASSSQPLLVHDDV

Chain of D816V KIT (P10721 26-976 D816V): as the sequence (P10721 26-976 V560G/D816V) above, with G535V counted along it
Chain of PDGFRA D842V (P16234 24-1089 D842V): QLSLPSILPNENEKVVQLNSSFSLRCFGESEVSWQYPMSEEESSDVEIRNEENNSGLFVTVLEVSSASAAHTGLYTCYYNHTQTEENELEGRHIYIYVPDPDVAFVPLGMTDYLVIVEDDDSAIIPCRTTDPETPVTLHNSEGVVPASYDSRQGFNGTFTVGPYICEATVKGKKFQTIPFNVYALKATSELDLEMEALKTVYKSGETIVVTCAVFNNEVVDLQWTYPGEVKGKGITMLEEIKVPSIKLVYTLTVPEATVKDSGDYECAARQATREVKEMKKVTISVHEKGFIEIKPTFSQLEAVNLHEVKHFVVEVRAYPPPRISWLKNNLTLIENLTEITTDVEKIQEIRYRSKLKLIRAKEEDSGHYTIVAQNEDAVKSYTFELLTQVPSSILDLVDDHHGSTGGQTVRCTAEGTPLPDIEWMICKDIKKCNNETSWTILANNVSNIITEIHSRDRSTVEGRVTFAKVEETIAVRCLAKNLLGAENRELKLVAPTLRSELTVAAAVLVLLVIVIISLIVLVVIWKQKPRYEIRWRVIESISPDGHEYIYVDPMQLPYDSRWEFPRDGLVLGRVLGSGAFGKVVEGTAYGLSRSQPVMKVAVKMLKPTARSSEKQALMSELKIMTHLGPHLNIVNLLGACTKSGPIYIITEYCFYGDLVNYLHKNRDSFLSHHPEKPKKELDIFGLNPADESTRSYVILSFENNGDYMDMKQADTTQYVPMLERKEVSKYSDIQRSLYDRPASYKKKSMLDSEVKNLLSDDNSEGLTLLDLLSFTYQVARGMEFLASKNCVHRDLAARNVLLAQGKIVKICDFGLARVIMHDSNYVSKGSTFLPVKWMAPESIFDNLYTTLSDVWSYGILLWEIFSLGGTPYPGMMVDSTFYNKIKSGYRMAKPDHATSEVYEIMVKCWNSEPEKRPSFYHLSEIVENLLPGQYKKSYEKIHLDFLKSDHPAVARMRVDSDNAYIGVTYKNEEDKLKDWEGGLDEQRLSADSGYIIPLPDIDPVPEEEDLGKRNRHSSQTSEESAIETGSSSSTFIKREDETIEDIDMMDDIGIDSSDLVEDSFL

Row | Structure (SMILES) | IC50 (D816V KIT) | IC50 (PDGFRA D842V) | IC50 [1]
1 | CN(C)C(=O)c1ccc(-c2cc3c(N4CCN(c5ncc(Cc6ccccc6)cn5)CC4)ncnn3c2)cc1 [Compound 98] | < 1 nM | < 1 nM | 100 to 1000 nM
2 | Cn1cc(-c2cc3c(N4CCN(c5ncc([C@@](N)(c6ccc(F)cc6)C(F)(F)F)cn5)CC4)ncnn3c2)cn1 [Compound 122] | 1.01 to 10 nM | 1.01 to 10 nM | < 50 nM
3 | Cn1cc(-c2cc3c(N4CCN(c5ncc([C@](C)(N)c6ccc(F)cc6F)cn5)CC4)ncnn3c2)cn1 [Compound 86] | < 1 nM | < 1 nM | < 50 nM
4 | CC[C@@H](c1ccc(F)cc1)c1cnc(N2CCN(c3ncnn4cc(-c5cnn(C)c5)cc34)CC2)nc1 (single isomer, unassigned) [Compound 41] | 1.01 to 10 nM | 1.01 to 10 nM | 50 to 100 nM
5 | C[C@](O)(c1cnc(N2CCN(c3ncnn4cc(-c5cn[nH]c5)cc34)CC2)nc1)c1ccc(F)cc1F [Compound 57] | < 1 nM | 1.01 to 10 nM | < 50 nM
6 | COc1ccc(-c2cc3c(N4CCN(c5ncc(Cc6ccccc6)cn5)CC4)ncnn3c2)cc1 [Compound 18] | 10 to 100 nM | 10 to 100 nM | > 10000 nM
7 | C[C@](O)(c1ccc(F)cc1)c1cnc(N2CCN(c3ncnn4cc(-c5cn[nH]c5)cc34)CC2)nc1 [Compound 30] | < 1 nM | < 1 nM | < 50 nM
8 | Cn1cc(-c2cc3c(N4CCN(c5ncc([C@@](C)(CO)c6ccc(F)cc6)cn5)CC4)ncnn3c2)cn1 [Compound 78] | < 1 nM | < 1 nM | < 50 nM
9 | Cn1cc(-c2cc3c(N4CCN(c5ncc([C@](C)(O)c6ccc(F)cc6)cn5)CC4)ncnn3c2)cn1 [Compound 45] | < 1 nM | < 1 nM | < 50 nM
10 | Cn1cc(-c2cc3c(N4CCN(c5ncc([C@](O)(CF)c6ccc(F)cc6)cn5)CC4)ncnn3c2)cn1 [Compound 96] | < 1 nM | < 1 nM | < 50 nM
11 | C[C@](O)(c1ccc(F)cc1)c1cnc(N2CCN(c3ncnn4cc(-c5ccccc5)cc34)CC2)nc1 [Compound 38] | 1.01 to 10 nM | 1.01 to 10 nM | 50 to 100 nM
12 | C[C@](O)(c1ccc(F)cc1)c1cnc(N2CCN(c3ncnn4cc(-c5ccc(F)cc5)cc34)CC2)nc1 [Compound 65] | 1.01 to 10 nM | 1.01 to 10 nM | 100 to 1000 nM
13 | Cn1cc(-c2cc3c(N4CCN(c5ncc(C(C)(C)c6ccccc6)cn5)CC4)ncnn3c2)cn1 [Compound 20] | 1.01 to 10 nM | 1.01 to 10 nM | < 50 nM
14 | Fc1ccccc1Sc1cnc(N2CCN(c3ncnn4cc(-c5cnn(C[C@@H]6CNCCO6)c5)cc34)CC2)nc1 [Compound 123, (S)-2-((4-(4-(4-(5-(2-fluorophenylthio)pyrimidin-2-yl)piperazin-1-yl)pyrrolo[1,2-f][1,2,4]triazin-6-yl)-1H-pyrazol-1-yl)methyl)morpholine] | 1.01 to 10 nM | 1.01 to 10 nM | 50 to 100 nM
15 | Cn1cc(-c2cc3c(N4CCN(c5ncc(Cc6ccc(F)cc6)cn5)CC4)ncnn3c2)cn1 [Compound 14] | < 1 nM | 1.01 to 10 nM | < 50 nM
16 | Cc1ncc(-c2cc3c(N4CCN(c5ncc([C@](C)(O)c6ccc(F)cc6)cn5)CC4)ncnn3c2)s1 [Compound 87] | 1.01 to 10 nM | 1.01 to 10 nM | 100 to 1000 nM
17 | O[C@@](c1ccc(F)cc1)(c1cnc(N2CCN(c3ncnn4cc(-c5cn[nH]c5)cc34)CC2)nc1)C(F)F [Compound 100] | < 1 nM | < 1 nM | < 50 nM
18 | C[C@@](O)(c1cnc(N2CCN(c3ncnn4cc(-c5cn[nH]c5)cc34)CC2)nc1)c1ccc(F)cc1F [Compound 58] | < 1 nM | < 1 nM | 
19 | CC[C@](O)(c1ccc(F)cc1)c1cnc(N2CCN(c3ncnn4cc(-c5cnn(C)c5)cc34)CC2)nc1 [Compound 69] | 1.01 to 10 nM |  | 100 to 1000 nM

Row | Structure (SMILES) | IC50 (D816V KIT) | IC50 (PDGFRA D842V) | IC50 [1]
20 | Cn1cc(-c2cn3ncnc(N4CCN(c5ncc([C@@](C)(O)c6ccc(F)cc6)cn5)CC4)c3c2F)cn1 [Compound 90] | > 100 nM |  | 1000 to 10000 nM
21 | CC[C@H](c1ccc(F)cc1)c1cnc(N2CCN(c3ncnn4cc(-c5cnn(C)c5)cc34)CC2)nc1 (single isomer, unassigned) [Compound 40] | 1.01 to 10 nM |  | 100 to 1000 nM
22 | CN(C)C(=O)c1ccc(-c2cc3c(N4CCN(c5ccccc5)CC4)ncnn3c2)cc1 [Compound 6] | > 100 nM |  | > 10000 nM
23 | CC(C)(C)OC(=O)N1CC=C(c2cc3c(N4CCN(c5ncc([C@@](C)(O)c6ccc(F)cc6)cn5)CC4)ncnn3c2)CC1 [Compound 124] | 1.01 to 10 nM |  | < 50 nM
24 | Cn1cc(-c2cc3c(N4CCN(c5ncc([C@](C)(O)c6ccccc6)cn5)CC4)ncnn3c2)cn1 [Compound 24] | 1.01 to 10 nM |  | 100 to 1000 nM
25 | Cn1cc(-c2cc3c(N4CCN(c5ncc(S(=O)(=O)c6ccc(F)cc6)cn5)CC4)ncnn3c2)cn1 [Compound 99] | 10 to 100 nM |  | 1000 to 10000 nM
26 | C[C@H](O)Cn1cc(-c2cc3c(N4CCN(c5ncc(Sc6ccccc6F)cn5)CC4)ncnn3c2)cn1 [Compound 105] | 1.01 to 10 nM |  | < 50 nM
27 | CC[C@@](O)(c1ccc(F)cc1)c1cnc(N2CCN(c3ncnn4cc(-c5cnn(C)c5)cc34)CC2)nc1 [Compound 70] | 1.01 to 10 nM |  | < 50 nM
28 | Cn1cc(-c2cc3c(N4CCN(c5ncc([C@@](C)(O)c6ccc(F)cc6Cl)cn5)CC4)ncnn3c2)cn1 [Compound 110] | 1.01 to 10 nM |  | < 50 nM
29 | C[C@@H]1CN(c2ncnn3cc(-c4cnn(C)c4)cc23)CCN1c1ncc(Sc2ccccc2F)cn1 [Compound 55] | 10 to 100 nM |  | 100 to 1000 nM
30 | Cn1cc(-c2cc3c(N4CCN(c5ncc([C@](C)(O)c6ccc(F)cn6)cn5)CC4)ncnn3c2)cn1 [Compound 53] | 10 to 100 nM |  | 1000 to 10000 nM
31 | COc1ccc(-c2cc3c(N4CCN(c5ccccc5)CC4)ncnn3c2)cc1 [Compound 2] | > 100 nM |  | > 10000 nM
32 | Cn1cc(-c2cc3c(N4CCN(c5ncc(C(C)(C)c6c(F)cc(F)cc6F)cn5)CC4)ncnn3c2)cn1 [Compound 106] | 1.01 to 10 nM |  | < 50 nM
33 | Cn1cc(-c2cc3c(N4CCN(c5ncc([C@@H](N)c6ccc(F)cc6)cn5)CC4)ncnn3c2)cn1 [Compound 27] | 1.01 to 10 nM |  | < 50 nM
34 | CN(C)[C@@H](c1ccccc1)c1cnc(N2CCN(c3ncnn4cc(-c5cnn(C)c5)cc34)CC2)nc1 [Compound 36, (S)—N,N-dimethyl-1-(2-(4-(6-(1-methyl-1H-pyrazol-4-yl)pyrrolo[2,1-f][1,2,4]triazin-4-yl)piperazin-1-yl)pyrimidin-5-yl)-1-phenylmethanamine] | 1.01 to 10 nM |  | 100 to 1000 nM
35 | Cn1cc(-c2cc3ncnc(N4CCN(c5ncc(C(C)(C)c6ccc(F)cc6)cn5)CC4)n3n2)cn1 [Compound 42] | 10 to 100 nM |  | 1000 to 10000 nM
36 | C[C@H](c1ccc(F)cc1)c1cnc(N2CCN(c3ncnn4cc(-c5cnn(C)c5)cc34)C[C@H]2CO)nc1 [Compound 74] | 1.01 to 10 nM |  | 50 to 100 nM
37 | C[C@@H]1CN(c2ncnn3cc(-c4cnn(C)c4)cc23)CCN1c1ncc(Cc2ccccc2)cn1 [Compound 8] | 1.01 to 10 nM |  | 100 to 1000 nM
38 | Cn1cc(-c2cc3c(N4CCN(c5ncc([C@](C)(N)c6c(F)cc(F)cc6F)cn5)CC4)ncnn3c2)cn1 [Compound 113] | < 1 nM |  | < 50 nM

— patent publication US10807985B2 (Blueprint Medicines Corporation, priority 2013, dated 2020)
